Data published in ChEMBL document CHEMBL5131408, “Novel O-acylated amidoximes and substituted 1,2,4-oxadiazoles synthesised from (+)-ketopinic acid possessing potent virus-inhibiting activity against phylogenetically distinct influenza A viruses” (Bioorg Med Chem Lett, 2022).

Columns and labels:
Influenza A virus [1] = test: Antiviral activity against Influenza A virus A/Anhui/1/2013 (H7N9) infected in MDCK cells assessed as inhibition of viral replication; assay type: functional, organism-based
Influenza A virus [2] = test: Antiviral activity against Influenza A virus A/Puerto Rico/8/34 (H1N1) infected in MDCK cells assessed as inhibition of viral replication; assay type: functional, organism-based
[3] = Selectivity index, ratio of CC50 for cytotoxicity against MDCK cells infected with Influenza A virus A/Puerto Rico/8/34 (H1N1) to IC50 for antiviral activity against Influenza A virus A/Puerto Rico/8/34 (H1N1) infected in MDCK cells; assay type: toxicity, cell-based; settings: dog; read-out: Ratio CC50/IC50
[4] = Selectivity index, ratio of CC50 for cytotoxicity against MDCK cells infected with Influenza A virus A/Anhui/1/2013 (H7N9) to IC50 for antiviral activity against Influenza A virus A/Anhui/1/2013 (H7N9) infected in MDCK cells; assay type: toxicity, cell-based; settings: dog; read-out: Ratio CC50/IC50
[5] = Cytotoxicity against MDCK cells infected with Influenza A virus A/Anhui/1/2013 (H7N9) assessed as reduction in cell viability; assay type: toxicity, cell-based, Canis lupus familiaris; settings: dog
[6] = Cytotoxicity against MDCK cells infected with Influenza A virus A/Puerto Rico/8/34 (H1N1) assessed as reduction in cell viability; assay type: toxicity, cell-based, Canis lupus familiaris; settings: dog
Influenza A virus [7] = test: Anti-membranotropic activity in Influenza A virus A/Puerto Rico/8/34 (H1N1) infected in chicken erythrocytes assessed as inhibition of hemagglutinin-driven membrane disruption incubated for 30 mins followed by infection in chicken erythrocytes; assay type: functional, organism-based; settings: Erythrocyte, DDE = dose-dependent effect

Row | Structure (SMILES) | IC50 (Influenza A virus [1]) | IC50 (Influenza A virus [2]) | selectivity ratio [3] | selectivity ratio [4] | CC50 [5] | CC50 [6] | Activity (Influenza A virus [7])
1 | CC1(C)[C@@H]2CC[C@@]1(C(=O)O/N=C(\N)c1ccc(Cl)cc1)C(=O)C2 | > 30 µM | 14 µM | 17 | 3 | 75 µM | 239 µM | –
2 | CC1(C)[C@@H]2CC[C@@]1(c1nc(-c3cccc(F)c3)no1)C(=O)C2 | 93 µM | 6 µM | > 231 | 11 | > 1000 µM | > 1280 µM | –
3 | CC1(C)[C@@H]2CC[C@@]1(c1nc(Cc3ccccc3F)no1)C(=O)C2 | – | 78 µM | 5 | – | – | 394 µM | –
4 | CCC(CC)O[C@@H]1C=C(C(=O)O)C[C@H](N)[C@H]1NC(C)=O [OSELTAMIVIR CARBOXYLATE] | 0.16 µM | 0.18 µM | – | > 625 | > 100 µM | > 100 µM | –
5 | CC1(C)[C@@H]2CC[C@@]1(c1nc(-c3ccccn3)no1)C(=O)C2 | – | > 1000 µM | – | – | – | > 1000 µM | –
6 | CC1(C)[C@@H]2CC[C@@]1(c1nc(Cc3cccc(F)c3)no1)C(=O)C2 | > 105 µM | 7 µM | 56 | 3 | 344 µM | 411 µM | Dde
7 | CC(C)(C)/C(N)=N/OC(=O)[C@]12CC[C@H](CC1=O)C2(C)C | – | 975 µM | 1 | – | – | > 1140 µM | –
8 | CN(C)Cc1noc([C@]23CC[C@H](CC2=O)C3(C)C)n1 | – | 913 µM | 1 | – | – | > 1190 µM | –
9 | CC(N)C12CC3CC(CC(C3)C1)C2 (configuration not stated) [RIMANTADINE] | 51 µM | 64 µM | 6 | 7 | – | 379 µM | –
10 | CC1(C)[C@@H]2CC[C@@]1(C(=O)O/N=C(\N)Cc1ccc(Cl)cc1)C(=O)C2 | – | 15 µM | 5 | – | – | 73 µM | –
11 | CC1(C)[C@@H]2CC[C@@]1(C(=O)O/N=C(\N)Cc1ccc(Br)cc1)C(=O)C2 | – | 12 µM | 4 | – | – | 46 µM | –
12 | CC1(C)[C@@H]2CC[C@@]1(C(=O)O/N=C(\N)Cc1ccc(F)cc1)C(=O)C2 | – | > 126 µM | < 2 | – | – | 244 µM | –
13 | CC1(C)[C@@H]2CC[C@@]1(C(=O)O/N=C(\N)c1cccnc1)C(=O)C2 | > 332 µM | 104 µM | > 10 | 3 | 831 µM | > 997 µM | –
14 | Cc1noc([C@]23CC[C@H](CC2=O)C3(C)C)n1 | – | > 904 µM | – | – | – | > 904 µM | –
15 | CC1(C)[C@@H]2CC[C@@]1(c1nc(-c3cccnc3)no1)C(=O)C2 | > 1060 µM | 13 µM | > 79 | 1 | 1060 µM | > 1060 µM | Dde
16 | CC1(C)[C@@H]2CC[C@@]1(c1nc(-c3ccccc3F)no1)C(=O)C2 | – | 12 µM | 37 | – | – | 455 µM | –
17 | CC(C)(C)c1noc([C@]23CC[C@H](CC2=O)C3(C)C)n1 | – | > 382 µM | < 3 | – | – | 1140 µM | –
18 | CC1(C)[C@@H]2CC[C@@]1(C(=O)O/N=C(\N)c1ccc(F)cc1)C(=O)C2 | > 94 µM | 8 µM | 29 | 1 | 94 µM | 236 µM | –
19 | CCc1noc([C@]23CC[C@H](CC2=O)C3(C)C)n1 | – | 193 µM | > 4 | – | – | > 763 µM | –
20 | CC1(C)[C@@H]2CC[C@@]1(C(=O)O/N=C(\N)c1ccc(C(F)(F)F)cc1)C(=O)C2 | – | 547 µM | > 2 | – | – | > 1060 µM | –
21 | CC1(C)[C@@H]2CC[C@@]1(c1nc(-c3ccc(F)cc3)no1)C(=O)C2 | 30 µM | 4 µM | 74 | 7 | 203 µM | 270 µM | –

Row | Structure (SMILES) | IC50 (Influenza A virus [1]) | IC50 (Influenza A virus [2]) | selectivity ratio [3] | selectivity ratio [4] | CC50 [5] | CC50 [6] | Activity (Influenza A virus [7])
22 | CC1(C)[C@@H]2CC[C@@]1(C(=O)O/N=C(\N)c1ccc(Br)cc1)C(=O)C2 | 3 µM | 13 µM | 31 | 118 | 354 µM | 387 µM | –
23 | CC1(C)[C@@H]2CC[C@@]1(C(=O)O/N=C(\N)c1ccccc1F)C(=O)C2 | – | 46 µM | 5 | – | – | 238 µM | –
24 | CC1(C)[C@@H]2CC[C@@]1(c1nc(Cc3ccc(Br)cc3)no1)C(=O)C2 | 267 µM | 13 µM | > 60 | 3 | > 800 µM | > 792 µM | –
25 | CC1(C)[C@@H]2CC[C@@]1(C(=O)O/N=C(\N)Cc1cccc(F)c1)C(=O)C2 | – | > 318 µM | 3 | – | – | 830 µM | –
26 | CC1(C)[C@@H]2CC[C@@]1(c1nc(Cc3ccc(F)cc3)no1)C(=O)C2 | – | > 105 µM | < 5 | – | – | 497 µM | –
27 | C/C(N)=N/OC(=O)[C@]12CC[C@H](CC1=O)C2(C)C | – | 175 µM | 3 | – | – | 545 µM | –
28 | CC1(C)[C@@H]2CC[C@@]1(C(=O)O/N=C(\N)c1ccncc1)C(=O)C2 | – | 78 µM | 11 | – | – | 846 µM | –
29 | CC1(C)[C@@H]2CC[C@@]1(c1nc(-c3ccc(Cl)cc3)no1)C(=O)C2 | – | 33 µM | 2 | – | – | 52 µM | –
30 | CC1(C)[C@@H]2CC[C@@]1(C(=O)O/N=C(\N)c1ccccn1)C(=O)C2 | 110 µM | 18 µM | 42 | 6 | 688 µM | 751 µM | –
31 | CN(C)C/C(N)=N/OC(=O)[C@]12CC[C@H](CC1=O)C2(C)C | – | 52 µM | 8 | – | – | 433 µM | –
32 | CC1(C)[C@@H]2CC[C@@]1(C(=O)O/N=C(\N)Cc1ccccc1F)C(=O)C2 | – | 124 µM | 7 | – | – | 877 µM | –
33 | CC1(C)[C@@H]2CC[C@@]1(c1nc(-c3ccc(Br)cc3)no1)C(=O)C2 | – | 6 µM | 6 | – | – | 37 µM | –
34 | CC1(C)[C@@H]2CC[C@@]1(C(=O)O/N=C(\N)c1cccc(F)c1)C(=O)C2 | 21 µM | 6 µM | 26 | 4 | 79 µM | 155 µM | –
35 | CC1(C)[C@@H]2CC[C@@]1(c1nc(-c3ccccc3)no1)C(=O)C2 | > 117 µM | 5 µM | 37 | 2 | 199 µM | 198 µM | –
36 | CC1(C)[C@@H]2CC[C@@]1(c1nc(-c3ccc(C(F)(F)F)cc3)no1)C(=O)C2 | – | 7 µM | 5 | – | – | 32 µM | –
37 | CC(C)c1noc([C@]23CC[C@H](CC2=O)C3(C)C)n1 | – | 188 µM | 5 | – | – | 897 µM | –
38 | CC1(C)[C@@H]2CC[C@@]1(c1nc(-c3ccncc3)no1)C(=O)C2 | > 353 µM | 25 µM | 40 | 3 | 1110 µM | 1000 µM | –
39 | CC1(C)[C@@H]2CC[C@@]1(C(=O)O/N=C(\N)c1ccccc1)C(=O)C2 | – | 59 µM | 5 | – | – | 290 µM | –
40 | CC1(C)[C@@H]2CC[C@@]1(c1nc(Cc3ccc(Cl)cc3)no1)C(=O)C2 | 8 µM | 36 µM | > 25 | 120 | > 906 µM | > 906 µM | –
41 | CC(C)/C(N)=N/OC(=O)[C@]12CC[C@H](CC1=O)C2(C)C | – | 50 µM | 14 | – | – | 730 µM | –
42 | CC/C(N)=N/OC(=O)[C@]12CC[C@H](CC1=O)C2(C)C | – | 162 µM | 5 | – | – | 807 µM | –
